Test results from patent publication US9493446B2, “Orexin receptor antagonists which are [ortho bi-(hetero-)aryl]-[2-(meta bi-(hetero-)aryl)-pyrrolidin-1-yl]-methanone derivatives” (Actelion Pharmaceuticals Ltd, priority 2012, dated 2016).
Where two headings read alike, the source gives them in different places.

Key:
[1] = molecular target: orexin-1 (Homo sapiens (Human), UniProt O43613); test: Intracellular calcium measurement (FLIPR), CHO cells expressing human orexin-1 receptor, 3 nM orexin-A; type: cell-based; settings: read-out: IC50 OX1
Summary of the method: (§1)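 CHO cells stably expressing each receptor were loaded with 3 μM fluo-4 AM plus 5 mM probenecid for 50 min at 37 °C, then equilibrated 30 min at rt.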

[2] = molecular target: human orexin-2 receptor (Homo sapiens (Human), UniProt O43614); test: Intracellular calcium measurement (FLIPR), CHO cells expressing human orexin-2 receptor, 3 nM orexin-A; type: cell-based; settings: read-out: IC50 OX2
Summary of the method: as §1

[3] = CHO cells expressing human orexin-2 receptor, FLIPR, 3 nM orexin-A, geometric mean if determined several times
[4] = CHO cells expressing human orexin-1 receptor, FLIPR, 3 nM orexin-A, geometric mean if determined several times

Chain of orexin-1 (O43613 whole entry): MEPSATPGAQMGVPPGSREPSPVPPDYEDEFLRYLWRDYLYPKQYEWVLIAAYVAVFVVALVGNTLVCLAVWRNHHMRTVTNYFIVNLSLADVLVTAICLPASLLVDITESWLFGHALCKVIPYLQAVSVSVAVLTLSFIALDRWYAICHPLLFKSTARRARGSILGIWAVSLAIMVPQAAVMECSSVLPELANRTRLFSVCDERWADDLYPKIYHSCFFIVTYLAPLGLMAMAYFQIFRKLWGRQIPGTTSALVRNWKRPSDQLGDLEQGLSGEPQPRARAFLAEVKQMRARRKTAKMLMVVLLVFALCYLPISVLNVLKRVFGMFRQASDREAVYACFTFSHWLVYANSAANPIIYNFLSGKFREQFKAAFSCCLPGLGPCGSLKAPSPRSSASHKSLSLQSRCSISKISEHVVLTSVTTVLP
Chain of human orexin-2 receptor (O43614 whole entry): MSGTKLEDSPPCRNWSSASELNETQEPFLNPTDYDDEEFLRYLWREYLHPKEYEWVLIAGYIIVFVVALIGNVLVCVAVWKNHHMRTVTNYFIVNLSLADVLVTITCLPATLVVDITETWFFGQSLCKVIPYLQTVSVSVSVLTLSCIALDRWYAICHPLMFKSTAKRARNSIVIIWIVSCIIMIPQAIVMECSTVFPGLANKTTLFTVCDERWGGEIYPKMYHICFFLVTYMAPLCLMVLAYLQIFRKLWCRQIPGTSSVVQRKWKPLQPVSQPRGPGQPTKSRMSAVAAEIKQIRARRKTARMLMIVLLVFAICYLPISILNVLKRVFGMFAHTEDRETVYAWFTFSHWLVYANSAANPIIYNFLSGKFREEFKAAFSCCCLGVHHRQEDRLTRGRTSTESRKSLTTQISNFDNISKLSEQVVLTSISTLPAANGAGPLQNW

| SMILES | IC50 [1] | IC50 [2, 3] | IC50 [1, 4] | IC50 [2] |
| --- | --- | --- | --- | --- |
| COc1ccc(-n2nccn2)c(C(=O)N2CCC[C@H]2c2nc(-c3cccc(Cl)c3C)no2)c1 [compound 100] | 92 nM | 8 nM | – | – |
| COc1ccc(-c2ccccc2)c(C(=O)N2CCC[C@H]2c2nc(-c3cccc(Cl)c3C)no2)c1 [compound 101, {(S)-2-[3-(3-Chloro-2-methyl-phenyl)-[1,2,4]oxadiazol-5-yl]-pyrrolidin-1-yl}-(4-methoxy-biphenyl-2-yl)-methanone] | – | 6 nM | 9 nM | – |
| COc1cc(C(=O)N2CCC[C@H]2c2nc(-c3cccc(Cl)c3C)no2)c(-n2nccn2)cc1C [compound 103] | – | 2 nM | 30 nM | – |
| Cc1c(Cl)cccc1-c1noc([C@@H]2CCCN2C(=O)c2cc(F)ccc2-n2nccn2)n1 [compound 104] | – | – | 1030 nM | 38 nM |
| COc1cc(C(=O)N2CCC[C@H]2c2nc(-c3cccc(Cl)c3C)no2)c(-n2cccn2)cc1C [compound 105] | 133 nM | 8 nM | – | – |
| COc1ccc(-n2cccn2)c(C(=O)N2CCC[C@H]2c2nc(-c3cccc(Cl)c3C)no2)c1 [compound 106] | – | 28 nM | 327 nM | – |
| Cc1c(Cl)cccc1-c1noc([C@@H]2CCCN2C(=O)c2cccnc2-c2ccccn2)n1 [compound 107] | – | 79 nM | 1040 nM | – |
| Cc1ccc(-n2cccn2)c(C(=O)N2CCC[C@H]2c2nc(-c3cccc(Cl)c3C)no2)n1 [compound 109] | 976 nM | – | – | 199 nM |
| Cc1c(Cl)cccc1-c1noc([C@@H]2CCCN2C(=O)c2cc(F)c(F)cc2-n2nccn2)n1 [compound 110] | – | 159 nM | 1690 nM | – |
| Cc1c(Cl)cccc1-c1noc([C@@H]2CCCN2C(=O)c2ccc(F)cc2-n2cccn2)n1 [compound 111] | – | 261 nM | 1150 nM | – |
| Cc1c(Cl)cccc1-c1noc([C@@H]2CCCN2C(=O)c2ccc(F)cc2-n2nccn2)n1 [compound 112] | – | – | 833 nM | 121 nM |
| Cc1c(Cl)cccc1-c1noc([C@@H]2CCCN2C(=O)c2cccc(F)c2-n2cccn2)n1 [compound 113] | – | 146 nM | 1200 nM | – |
| Cc1c(Cl)cccc1-c1noc([C@@H]2CCCN2C(=O)c2cccc(F)c2-n2nccn2)n1 [compound 114] | 1080 nM | – | – | 83 nM |
| Cc1cc(C(=O)N2CCC[C@H]2c2nc(-c3cccc(Cl)c3C)no2)c(-n2cccn2)cc1C [compound 115] | – | 6 nM | 78 nM | – |
| Cc1c(Cl)cccc1-c1noc([C@@H]2CCCN2C(=O)c2cc(F)ccc2-c2ccn[nH]2)n1 [compound 116] | – | 34 nM | 457 nM | – |
| Cc1c(Cl)cccc1-c1noc([C@@H]2CCCN2C(=O)c2cccc(F)c2-c2ccn[nH]2)n1 [compound 117] | 211 nM | 5 nM | – | – |
| COc1ccc(C(=O)N2CCC[C@H]2c2nc(-c3cccc(Cl)c3C)no2)c(-n2nccn2)c1 [compound 118] | 260 nM | – | – | 48 nM |
| Cc1cc(C)c(-n2nccn2)c(C(=O)N2CCC[C@H]2c2nc(-c3cccc(Cl)c3C)no2)c1 [compound 119] | – | – | 188 nM | 24 nM |
| Cc1c(Cl)cccc1-c1noc([C@@H]2CCCN2C(=O)c2ccccc2-c2ncco2)n1 [compound 120] | – | – | 483 nM | 37 nM |

| SMILES | IC50 [1] | IC50 [2, 3] | IC50 [1, 4] | IC50 [2] |
| --- | --- | --- | --- | --- |
| Cc1c(Cl)cccc1-c1noc([C@@H]2CCCN2C(=O)c2ccc(Cl)cc2-n2nccn2)n1 [compound 121] | 145 nM | 15 nM | – | – |
| Cc1c(Cl)cccc1-c1noc([C@@H]2CCCN2C(=O)c2ccc(C(F)(F)F)cc2-n2nccn2)n1 [compound 122] | 933 nM | 221 nM | – | – |
| Cc1nc(C(=O)N2CCC[C@H]2c2nc(-c3cccc(Cl)c3C)no2)c(-c2cccc(F)c2)s1 [compound 123] | – | 111 nM | 133 nM | – |
| Cc1nc(C(=O)N2CCC[C@H]2c2nc(-c3cccc(Cl)c3C)no2)c(-c2ccccc2F)s1 [compound 124] | – | 77 nM | 145 nM | – |
| Cc1nc(C(=O)N2CCC[C@H]2c2nc(-c3cccc(Cl)c3C)no2)c(-c2ccc(F)cc2)s1 [compound 125] | – | 80 nM | 353 nM | – |
| Cc1cccc(-c2sc(C)nc2C(=O)N2CCC[C@H]2c2nc(-c3cccc(Cl)c3C)no2)c1 [compound 126] | – | 118 nM | 221 nM | – |
| Cc1ncc(C(=O)N2CCC[C@H]2c2nc(-c3cccc(Cl)c3C)no2)c(-c2cccc(Cl)c2)n1 [compound 127] | – | – | 581 nM | 125 nM |
| COc1cccc(-c2nccnc2C(=O)N2CCC[C@H]2c2nc(-c3cccc(Cl)c3C)no2)c1 [compound 128] | 200 nM | 181 nM | – | – |
| Cc1ccc(C(=O)N2CCC[C@H]2c2nc(-c3cccc(Cl)c3C)no2)c(-n2nccn2)c1C [compound 129] | 419 nM | 287 nM | – | – |
| COc1cc(C(=O)N2CCC[C@H]2c2nc(-c3cccc(Cl)c3C)no2)c(-n2nccn2)cc1F [compound 130] | – | 16 nM | 188 nM | – |
| Cc1ccc(-c2ncco2)c(C(=O)N2CCC[C@H]2c2nc(-c3cccc(Cl)c3C)no2)c1 [compound 131] | 45 nM | – | – | 8 nM |
| Cc1cc(F)cc(C(=O)N2CCC[C@H]2c2nc(-c3cccc(Cl)c3C)no2)c1-n1nccn1 [compound 132] | – | – | 831 nM | 250 nM |
| COc1cc(C(=O)N2CCC[C@H]2c2nc(-c3cccc(Cl)c3C)no2)c(-n2nccn2)cc1OC [compound 133] | – | 36 nM | 522 nM | – |
| Cc1noc(-c2ccccc2C(=O)N2CCC[C@H]2c2nc(-c3ccccc3OC(F)(F)F)no2)n1 [compound 134] | – | 219 nM | 274 nM | – |
| O=C(c1ccccc1-c1ccccc1)N1CCC[C@H]1c1nc(-c2ccccc2OC(F)(F)F)no1 [compound 135, Biphenyl-2-yl-{(S)-2-[3-(2-trifluoromethoxy-phenyl)-[1,2,4]oxadiazol-5-yl]-pyrrolidin-1-yl}-methanone] | – | 17 nM | 60 nM | – |
| Cc1ccc(-c2ccccc2)c(C(=O)N2CCC[C@H]2c2nc(-c3ccccc3OC(F)(F)F)no2)c1 [compound 136, (4-Methyl-biphenyl-2-yl)-{(S)-2-[3-(2-trifluoromethoxy-phenyl)-[1,2,4]oxadiazol-5-yl]-pyrrolidin-1-yl}-methanone] | – | 9 nM | 12 nM | – |
| Cc1ccc(-n2cccn2)c(C(=O)N2CCC[C@H]2c2nc(-c3ccccc3OC(F)(F)F)no2)c1 [compound 137, (5-Methyl-2-pyrazol-1-yl-phenyl)-{(S)-2-[3-(2-trifluoromethoxy-phenyl)-[1,2,4]oxadiazol-5-yl]-pyrrolidin-1-yl}-methanone] | – | 23 nM | 33 nM | – |
| Cc1ccc(-c2ccccn2)c(C(=O)N2CCC[C@H]2c2nc(-c3ccccc3OC(F)(F)F)no2)c1 [compound 138, (5-Methyl-2-pyridin-2-yl-phenyl)-{(S)-2-[3-(2-trifluoromethoxy-phenyl)-[1,2,4]oxadiazol-5-yl]-pyrrolidin-1-yl}-methanone] | – | 30 nM | 49 nM | – |
| Cc1cccc(-c2oc(C)nc2C(=O)N2CCC[C@H]2c2nc(-c3ccccc3OC(F)(F)F)no2)c1 [compound 139, (2-Methyl-5-m-tolyl-oxazol-4-yl)-{(S)-2-[3-(2-trifluoromethoxy-phenyl)-[1,2,4]oxadiazol-5-yl]-pyrrolidin-1-yl}-methanone] | – | 62 nM | 124 nM | – |
